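These data come from cells grown in 96-well plates and exposed to compound for 48 hours at five concentrations. Here, GI50 denotes the concentration required for 50% inhibition of growth. TGI denotes the concentration required for complete inhibition of growth.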
Columns and labels:
Test in all cases: DTP human tumour cell line panel, 48 h
DMS 114 small cell lung = tested on: DMS 114 small cell lung
DMS 273 small cell lung = tested on: DMS 273 small cell lung
LXFL 529 NSCLC = tested on: LXFL 529 NSCLC
SNB-78 CNS = tested on: SNB-78 CNS
BT-549 breast = tested on: BT-549 breast
HS 578T breast = tested on: HS 578T breast
MDA-MB-231 breast = tested on: MDA-MB-231 breast
NCI/ADR-RES ovarian = tested on: NCI/ADR-RES ovarian
PC-3 prostate = tested on: PC-3 prostate

| SMILES | TGI (DMS 114 small cell lung) [µM] | TGI (DMS 273 small cell lung) [µM] | TGI (LXFL 529 NSCLC) [µM] | TGI (SNB-78 CNS) [µM] | GI50 (BT-549 breast) [µM] | TGI (BT-549 breast) [µM] | GI50 (HS 578T breast) [µM] | TGI (HS 578T breast) [µM] | GI50 (MDA-MB-231 breast) [µM] | TGI (MDA-MB-231 breast) [µM] | GI50 (NCI/ADR-RES ovarian) [µM] | TGI (NCI/ADR-RES ovarian) [µM] | GI50 (PC-3 prostate) [µM] | TGI (PC-3 prostate) [µM] |
| --- | --- | --- | --- | --- | --- | --- | --- | --- | --- | --- | --- | --- | --- | --- |
| CCOc1ccc(NCC2CC/C(=C\c3ccccc3OC)C2=O)cc1 (stereo not drawn) | 28.2 | 6.76 | 6.5 | 44.3 |  |  |  |  |  |  |  |  |  |  |
| O=C(c1ccccc1)c1c(C(F)(F)F)n([O-])c2cc(C(F)(F)F)ccc2[n+]1=O |  |  |  |  | 0.91 | 2.27 | 1.8 | 4.29 | 1.6 | 3.11 | 2.01 | 5.12 | 1.19 | 2.54 |
| O=C(CI)Nc1ccc(O)c2ccccc12 |  |  |  |  | 2.28 | 6.25 | 2.45 | 8.49 | 2.59 | 6.69 | 2.97 | 14.8 | 2.38 | 9.69 |
| O=C1C(=O)c2ccccc2C(O)=C1CCCc1ccc(C2CCCCC2)cc1 |  |  |  |  | 3.19 | 39.3 | 8.59 | 56.9 | 10.4 | 31 | 5.66 | 76.5 | 0.722 | 44.8 |
| COC(=O)C(CC(=O)Nc1ccc(Cl)c(Cl)c1)C(=O)C(=O)Nc1ccc(Cl)c(Cl)c1 (stereo not drawn) | > 100 | > 100 | > 100 | > 100 |  |  |  |  |  |  |  |  |  |  |
| O=S(=O)(N=NC=C1c2ccccc2N(O)c2ccccc21)c1ccc(Cl)cc1 | > 100 | > 100 | > 100 | > 100 |  |  |  |  |  |  |  |  |  |  |
| COC1=CC(c2ccc[nH]2)=N/C1=C\c1[nH]c(C)c(CC(=O)OCc2ccccc2)c1C |  |  |  |  | 0.432 | 3.08 | 0.362 | 2.26 | 0.144 | 0.859 | 0.444 | 1.97 | 0.299 | 10.3 |
| CC(C)=CC(=O)N[C@H]1CC[C@]2(C)C3CC[C@]4(C)C(C(C)N(C)C)=CCC4C3CCC2[C@H]1O (stereo partly drawn) |  |  |  |  | 5.99 | 20.8 | 4.25 | 18.8 | 3.34 | 9.79 | 10.3 | 25.5 | 3.88 | 18.1 |
| N#C/C(=N\Nc1ccccc1)C(=O)Nc1cc(-c2ccccc2)nn1-c1ccccc1 |  |  |  |  | 2.2 | 6.47 | 3.5 | > 100 | 3.34 | > 100 | 2.83 | 30.2 | 2.13 | 9.48 |
| CCCCCCCC(=O)SCC/C=C/[C@@H]1CC(=O)NCc2nc(cs2)C2=N[C@@](C)(CS2)C(=O)N[C@@H](C(C)C)C(=O)N1 |  |  |  |  | 0.0604 | > 66.8 | 0.0183 | 38 | 0.0286 | 31.5 | 26.7 | > 100 | < 0.0125 | > 100 |
| Cc1ccc2nc3cc(C)c(=O)cc-3sc2c1 | > 100 | > 100 | > 100 | > 100 |  |  |  |  |  |  |  |  |  |  |
| Cc1nc(/C=C2\C(=O)C=Cc3ccccc32)c(O)o1 | > 100 |  | > 100 | > 100 |  |  |  |  |  |  |  |  |  |  |
| Clc1ccc2nc(CI)c(CI)nc2c1 |  |  |  |  | 2.11 | 5.58 | 20.6 | > 65.5 | 2.67 | 7.58 | 6.8 | > 57.7 | 7.02 | 29.9 |
| CC(=O)NNc1nc(C)c(C(=O)/C=C/c2ccc(Cl)cc2)s1 | > 100 | > 100 |  | > 100 |  |  |  |  |  |  |  |  |  |  |
| Cc1ccc(S(=O)(=O)OC(COC(=O)c2ccccc2)C(OS(=O)(=O)c2ccc(C)cc2)C(OS(=O)(=O)c2ccc(C)cc2)C(COC(=O)c2ccccc2)OS(=O)(=O)c2ccc(C)cc2)cc1 (stereo not drawn) |  | > 100 | > 100 | > 100 |  |  |  |  |  |  |  |  |  |  |
| O=C(Nc1ccc(F)cc1)Nc1ccc(Br)c(C(F)(F)F)c1 |  |  |  |  | 2.05 | 7.4 | 2.95 | 9.31 | 2.18 | 5.33 | 2.51 | 10.1 | 0.847 | 9.24 |
| O=C(c1ccco1)c1c(C(F)(F)F)n([O-])c2cc(C(F)(F)F)ccc2[n+]1=O |  |  |  |  | 0.486 | 1.09 | 1.36 |  | 1.08 | 2.67 | 0.801 | 4.33 | 0.163 | 0.559 |
| COc1ccc(NC(=O)c2sc3nc(C)c(C(=O)/C=C/c4cccc(OC)c4)cc3c2N)cc1 |  |  |  |  | 1.02 | 2.67 | 4.5 | > 50 | 1.66 | > 50 | 1.59 | > 50 | 1.56 | 6.55 |
| CC(=O)OC12c3ccccc3-c3ccccc3C1C(C(=O)O)C2C(=O)O (stereo not drawn) |  |  |  |  |  |  |  | > 10 |  | > 10 |  | > 10 |  | > 10 |
| C[C@]12CC[C@H]3[C@@H](CC4SC(N)=NC45C/C(=N/NC(N)=O)CC[C@]35C)[C@@H]1CCC2=O (stereo partly drawn) |  |  |  |  | 2.84 | 8.91 | 2.08 | 5.15 | 1.7 | 3.43 | 1.94 | 3.87 | 1.25 | 2.75 |
| O=C(Nc1ccccc1-c1nn(CN2CCNCC2)c(=S)n(CN2CCNCC2)c1=O)C(F)(F)F | 34 | 35.3 |  | 62.4 |  |  |  |  |  |  |  |  |  |  |
| COc1cc(C(C)c2cc3c(cc2OCCNC(=O)COc2cc4c(cc2C(C)c2cc(OC)c(OC)c(OC)c2)OCO4)OCO3)cc(OC)c1OC (stereo not drawn) | > 100 | > 100 | > 100 |  |  |  |  |  |  |  |  |  |  |  |
| Cc1c(Cl)cccc1NC(=O)/C=C/c1ccccc1 |  |  |  |  |  | > 100 |  | > 100 |  | 96.3 |  |  |  | > 100 |
| O=C1C=Cc2c1ccc1ccccc21 |  |  |  |  | 31.4 | 89.9 | 18.4 | 54.6 | 15 | 53.6 | 31.9 | > 100 | 13 | 85.2 |
| COc1ccc(/C(C#N)=C/c2cc(OC)c(OC)c(OC)c2)cc1 |  |  |  |  | 21.1 | 70 | 38.7 | > 100 | 14.1 | > 100 | 13.2 | 65.1 | 15.6 | 67.9 |
| O=c1oc2cc(OC/C(=N/O)c3ccc(F)cc3)ccc2c2ccccc12 |  |  |  |  | 21.7 | 42.3 | 28.8 | 63.1 | 14.8 | 30.3 | 18 | 36.2 | 22.1 | 49.1 |
